From PMC6753678, “Fueling Open Innovation for Malaria Transmission-Blocking Drugs: Hundreds of Molecules Targeting Early Parasite Mosquito Stages” (Frontiers in Microbiology, 2019)
Where two headings read alike, the source gives them in different places.

How the values were obtained:
[1] = system: P. falciparum late stage (stages IV-V) gametocytes; design: method as in Almela et al 2016; details: ref Almela et al 2016, read-out: Pf GCT ATP IC50, cited from earlier work
[2] = system: HepG2 cells; details: cited from earlier work; for HepG2 cytoxicity (Pf FGAA screen): ref Miguel-Blanco et al 2017; for HepG2 cytoxicity: HepG2 data listed with Pf GCT ATP screen
[3] = system: P. berghei ookinete development; details: for Is compound selective in assay? Pb ODA active?: 1: YES, 0: NO; for % inhibition, Replicate A / % inhibition, Replicate B: primary screen at 1 μM
[4] = system: HepG2 cells; experiment: HepG2 cytotoxicity assay; details: for Unified cytotox: HepG2 values of the three screens unified; for IC50: read-out: HepG2 cytotoxicity assay IC50, dose response confirmation
Summary of the method: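 HepG2 cells, 2,500 per well in MEM with 10% FBS and 1% NEAA, exposed to compounds for 48 h at 37°C, 5% CO2. Viability read by fluorescence; percent inhibition relative to 50 μM doxorubicin and DMSO controls.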

[5] = system: 3D7-strain P. falciparum asexual parasites; experiment: P. falciparum asexual growth inhibition assay (Pf GIA); type: cell-based, Plasmodium falciparum; details: dose response confirmation; read-out: Pf asexual growth inhibition assays IC50
Summary of the method: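 Read-out was lactate dehydrogenase activity measured by absorbance at 650 nm after freezing and thawing, against 50 μM chloroquine and DMSO controls. Before that, asexual 3D7 cultures (0.25% parasitemia, 2% hematocrit) had 72 h dose-response compound exposure at 37°C in 5% CO2/5% O2/90% N2; three independent replicates averaged.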

[6] = system: P. falciparum female gametocytes; design: method as in Miguel-Blanco et al 2017; details: ref Miguel-Blanco et al 2017; read-out: Pf FGAA IC50; cited from earlier work
[7] = system: P. falciparum female gametocytes; experiment: P. falciparum female gametogenesis assay (Pf FGAA); details: 1: YES; 0: NO
[8] = read-out: Pb ODA IC50, this manuscript
[9] = read-out: Pb Ookinete development assay IC50, dose response confirmation
[10] = P. falciparum late stage gametocyte ATP assay

SMILES	IC50 ([1]; TCAMS library screen) [nM]	HepG2 cytoxicity (Pf GCT ATP screen) ([2]; HepG2 value reported with Pf GCT ATP screen, ref Almela et al 2016) [µM]	IC50 ([1]; P. falciparum late stage gametocyte ATP assay, TCAMS screen) [nM]	Is compound selective in assay? Pb ODA active? [3]	% inhibition, Replicate A [3] [%]	% inhibition, Replicate B [3] [%]	IC50 [3, 8] [nM]	IC50 [3, 9] [nM]	HepG2 cytoxicity (Pb ODA, this manuscript) [4] [µM]	Unified cytotox [4] [µM]	IC50 [4] [nM]	IC50 [5] [nM]	HepG2 cytoxicity (Pf FGAA screen) [2] [µM]	IC50 [6] [nM]	Is compound selective in assay? Pf FGAA active? [7]	IC50 [1, 10] [nM]	HepG2 cytoxicity ([2]; ref Almela et al 2016) [µM]
c1ccc(CSC2=NNC(c3ccccn3)S2)cc1 (centres unmarked) [TCMDC-123769]	7980	>25															
COc1ccc(-c2cc(-c3ccc(S(C)(=O)=O)cc3)cnc2N)cn1 [TCMDC-133351]			1180														
COc1ccc2nc3cc(Cl)ccc3c(N)c2c1.Cl [TCMDC-125835]				0 (0: NO)	74.62	77.49	6320	6320	6.17	3.87	6170	29	1.57	670	0 (0: NO)		
Cc1ccc(S(=O)(=O)N(CCCNCc2cccc(O)c2)c2ccccc2)cc1 [TCMDC-138022]				1 (1: YES)	53.17	87.34	1480	1480	34.67	39.67	34700	124	44.67	1140	1 (1: YES)		
Cc1cc(F)ccc1-c1nc(NCCCNCCc2ccccc2)nc2c1ccc(=O)n2-c1c(F)cccc1F.O=C(O)C(F)(F)F [TCMDC-141804]				1 (1: YES)	63.85	85.47	720	725	11.48	12.04	11500	21	12.59	3610	0 (0: NO)		
CCN(CC)/C(=N/C(=N)Nc1ccc(Cl)c(Cl)c1)NCCCCCCN/C(=N\C(=N)Nc1ccc(Cl)c(Cl)c1)N(CC)CC [TCMDC-131808]																3440	>25
Nc1nc(N)c2c(ccc3c2ccn3Cc2cccc(F)c2)n1 [TCMDC-137810]				0 (0: NO)	49.99	58.69	360	359	0.17	0.11	170	< 0.2	0.06	1420	0 (0: NO)		
CC(C)(CNC(=O)[C@H]1CCCCN1)c1nc(-c2ccc(Cl)c(O)c2)c(-c2ccncc2)[nH]1.Cl [TCMDC-141070]				1 (1: YES)	24.32	51.52		2570	61.66	45.31	61700	818	28.96	530	1 (1: YES)		
Cc1ccnc(NC(c2cccc(Cl)c2Cl)c2ccc3cccnc3c2O)c1 (centres unmarked) [TCMDC-123997]				0 (0: NO)	48.46	53.18	3500	3500	2.88	24.29	2880	1990	45.69	1910	1 (1: YES)		
N#Cc1ccc(Cn2ccc3c4c(N)nc(N)nc4ccc32)cc1 [TCMDC-137820]				0 (0: NO)	57.43	49.47	1540	1540	0.0017	0.0017	1.7	22	<0.0017	1060	0 (0: NO)		
Br.Cc1ccnc(Nc2nc(-c3ccccn3)cs2)c1 [TCMDC-125769]																43.3	
Cc1cc(NCCCCCCNc2cc(C)nc3c(C)cccc23)c2cccc(C)c2n1.Cl [TCMDC-125702]																3320	>25
O=C(Nc1ccc2c(c1)CCCN2S(=O)(=O)c1cccs1)c1cc([N+](=O)[O-])ccc1Cl [TCMDC-125153]																2660	>25
CCCC(N)C(=O)NC1CCN(c2c(F)c(N)c3c(=O)c(C(=O)O)cn4c3c2Oc2ccccc2-4)C1.Cl (centres unmarked) [TCMDC-125701]				0 (0: NO)	70.26	78.60		900	3.63	2.62	3630	56	1.61	1140	0 (0: NO)		
Cc1cc(Nc2ncc(C#N)c(Nc3ccccc3C(N)=O)n2)ccc1N1CCN(C)CC1.Cl [TCMDC-134115]				1 (1: YES)	100.09	101.70	21.4	21	3.98	2.19	3980	7	0.40	1670	0 (0: NO)		
CC(C)(CN)c1cc(-c2ccc(Cl)c(O)c2)c(-c2ccncc2)o1.Cl [TCMDC-141334]				1 (1: YES)	59.21	49.94	1390	1390	20.65	15.32	20600	1620	9.98	420	1 (1: YES)		
O=C(Nc1nc(-c2ccccn2)cs1)c1ccc(S(=O)(=O)N2CCc3ccccc32)cc1 [TCMDC-125432]				0 (0: NO)	17.85	54.79	2400	2400	4.22	16.72	4220	3850	29.22	1070	1 (1: YES)		
